From patent US20050245399A1, “Pyrazole derivatives as herbicidal compositions containing them” (ISHIHARA SANGYO KAISHA, LTD., priority 2004, published 2005)

What was measured:
Format in all cases: in vivo
[1] = tested on: barnyardgrass (Echinochloa crus-galli L.): ECHCG; assay: Test Example 1 pre-emergence herbicidal activity, ECHCG; conditions: Rate 63 g a.i./ha, visually observed 20th to 23rd day after application
Method in brief: (§1)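 Upland soil pot test. Formulated compound (wettable powder or emulsifiable concentrate) in water, 500 L/ha, sprayed one day after sowing before emergence; % control rated by eye on day 20–23.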

[2] = tested on: crabgrass (Digitaria sanguinalis L.): DIGSA; assay: Test Example 1 pre-emergence herbicidal activity, DIGSA; conditions: Rate 63 g a.i./ha, visually observed 20th to 23rd day after application
Method in brief: as §1

[3] = tested on: green foxtail (Setaria viridis L.): SETVI; assay: Test Example 1 pre-emergence herbicidal activity, SETVI; conditions: Rate 63 g a.i./ha, visually observed 20th to 23rd day after application
Method in brief: as §1

[4] = tested on: redroot pigweed (Amaranthus retroflexus L.): AMARE; assay: Test Example 1 pre-emergence herbicidal activity, AMARE; conditions: Rate 63 g a.i./ha, visually observed 20th to 23rd day after application
Method in brief: as §1

[5] = tested on: prickly sida (Sida spinosa L.): SEDSP; assay: Test Example 1 pre-emergence herbicidal activity, SIDSP; conditions: Rate 63 g a.i./ha, visually observed 20th to 23rd day after application
Method in brief: as §1

[6] = tested on: velvetleaf (Abutilon theophrasti): ABUTH; assay: Test Example 1 pre-emergence herbicidal activity, ABUTH; conditions: Rate 63 g a.i./ha, visually observed 20th to 23rd day after application
Method in brief: as §1

[7] = tested on: rice (Oryza sativa L.): ORYSA; assay: Test Example 1 pre-emergence herbicidal activity, ORYSA; conditions: Rate 63 g a.i./ha, visually observed 20th to 23rd day after application
Method in brief: as §1

[8] = tested on: wheat (Triticum aestivum L.): TRZAX; assay: Test Example 1 pre-emergence herbicidal activity, TRZAX; conditions: Rate 63 g a.i./ha, visually observed 20th to 23rd day after application
Method in brief: as §1

[9] = tested on: corn (Zea mays L.): ZEAMX; assay: Test Example 1 pre-emergence herbicidal activity, ZEAMX; conditions: Rate 63 g a.i./ha, visually observed 20th to 23rd day after application
Method in brief: as §1

[10] = tested on: soybean (Glycine max Merr.): GLXMA; assay: Test Example 1 pre-emergence herbicidal activity, GLXMA; conditions: Rate 63 g a.i./ha, visually observed 20th to 23rd day after application
Method in brief: as §1

[11] = tested on: barnyardgrass (Echinochloa crus-galli L.), ECHCG; assay: Test Example 2 post-emergence (foliage treatment) herbicidal activity, ECHCG; conditions: 63 g a.i./ha
Method in brief: (§2)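 Leaf stages at treatment differed per species: 1.1-2.1 for ECHCG, 1.0-2.0 for DIGSA, 0.1-1.5 for AMARE and 1.0-2 for ORYSA. Plants grew in pots of upland soil and were sprayed with wettable powder or emulsifiable concentrate in water (500 L/ha) plus spreader at 0.1% (v/v). Visual % control followed on days 20-23.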

[12] = tested on: crabgrass (Digitaria sanguinalis L.), DIGSA; assay: Test Example 2 post-emergence (foliage treatment) herbicidal activity, DIGSA; conditions: 63 g a.i./ha
Method in brief: as §2

[13] = tested on: green foxtail (Setaria viridis L.), SETVI; assay: Test Example 2 post-emergence (foliage treatment) herbicidal activity, SETVI; conditions: 63 g a.i./ha
Method in brief: (§3)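 Foliar spray of formulated compound (500 L/ha dilution water, 0.1% v/v spreader) onto young potted plants at defined leaf stages. Scored 0-100% by visual inspection 20-23 d post-spray.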

[14] = tested on: redroot pigweed (Amaranthus retroflexus L.), AMARE; assay: Test Example 2 post-emergence (foliage treatment) herbicidal activity, AMARE; conditions: 63 g a.i./ha
Method in brief: as §2

[15] = tested on: prickly sida (Sida spinosa L.), SIDSP; assay: Test Example 2 post-emergence (foliage treatment) herbicidal activity, SIDSP; conditions: 63 g a.i./ha
Method in brief: as §3

[16] = tested on: velvetleaf (Abutilon theophrasti), ABUTH; assay: Test Example 2 post-emergence (foliage treatment) herbicidal activity, ABUTH; conditions: 63 g a.i./ha
Method in brief: as §3

[17] = tested on: rice (Oryza sativa L.), ORYSA; assay: Test Example 2 post-emergence (foliage treatment) herbicidal activity, ORYSA; conditions: 63 g a.i./ha
Method in brief: as §2

[18] = tested on: wheat (Triticum aestivum L.), TRZAX; assay: Test Example 2 post-emergence (foliage treatment) herbicidal activity, TRZAX; conditions: 63 g a.i./ha
Method in brief: as §3

[19] = tested on: corn (Zea mays L.), ZEAMX; assay: Test Example 2 post-emergence (foliage treatment) herbicidal activity, ZEAMX; conditions: 63 g a.i./ha
Method in brief: as §3

[20] = tested on: soybean (Glycine max Merr.), GLXMA; assay: Test Example 2 post-emergence (foliage treatment) herbicidal activity, GLXMA; conditions: 63 g a.i./ha
Method in brief: as §3

[21] = tested on: barnyardgrass (Echinochiloa oryzicola: ECHOR); assay: Test Example 3 water application herbicidal activity (paddy), ECHOR; conditions: 63 g a.i./ha, water application under submerged condition at 0.5 leaf stage, visually observed 14th day after application; 0 = untreated control, 100 = complete kill
Method in brief: (§4)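 Flooded paddy-soil pots in greenhouse; ECHOR and SCPJO sown, SAGPY tubers planted a day later, compound applied into 3–4 cm water at weeds' 0.5-leaf stage. Rice transplanted at 2-leaf stage, treated day 4 after transplanting. Visual growth control 0–100% at 14 days (weeds) and 21 days (rice) after application.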

[22] = tested on: japanese bulrush (Scirpus juncoides: SCPJO); assay: Test Example 3 water application herbicidal activity (paddy), SCPJO; conditions: 63 g a.i./ha, water application under submerged condition at 0.5 leaf stage, visually observed 14th day after application; 0 = untreated control, 100 = complete kill
Method in brief: as §4

[23] = tested on: japanese ribbon wapato (Sagittaria pygmaea: SA GPY); assay: Test Example 3 water application herbicidal activity (paddy), SAGPY; conditions: 63 g a.i./ha, water application under submerged condition, tubers planted, visually observed 14th day after application; 0 = untreated control, 100 = complete kill
Method in brief: as §4

[24] = tested on: rice (Oryza sativa L.: ORYSA); assay: Test Example 3 water application herbicidal activity (paddy), transplanted rice ORYSA; conditions: 63 g a.i./ha, water application 4th day after transplantation of 2 leaf stage rice, visually observed 21st day after application; 0 = untreated control, 100 = complete kill
Method in brief: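 Rice at 2-leaf stage is transplanted into flooded puddled soil and treated by water application 4 days later, at a predetermined active-ingredient dose. Crop injury is rated visually as growth control (0–100%) 21 days after treatment.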

COc1c(Cl)cc(F)c(-c2nn(C)c(OC(F)F)c2Cl)c1NC(=O)c1ccc(F)cc1F [Compound 1-30]
Pre-emergence Herbicidal Activity ECHCG (growth controlling degree) [1]: 60% | Pre-emergence Herbicidal Activity DIGSP (growth controlling degree) [2]: 100% | Pre-emergence Herbicidal Activity SETVI (growth controlling degree) [3]: 100% | Pre-emergence Herbicidal Activity AMARE (growth controlling degree) [4]: 100% | Pre-emergence Herbicidal Activity SIDSP (growth controlling degree) [5]: 100% | Pre-emergence Herbicidal Activity ABUTH (growth controlling degree) [6]: 100% | Pre-emergence Herbicidal Activity ORYSA (growth controlling degree) [7]: 10% | Pre-emergence Herbicidal Activity TRZAX (growth controlling degree) [8]: 0% | Pre-emergence Herbicidal Activity ZEAMX (growth controlling degree) [9]: 10% | Pre-emergence Herbicidal Activity GLXMA (growth controlling degree) [10]: 10% | growth controlling degree, ECHCO [11]: 100% | growth controlling degree, DIGSP [12]: 100% | growth controlling degree, SETVI [13]: 100% | growth controlling degree, AMARE [14]: 100% | growth controlling degree, SIDSP [15]: 100% | growth controlling degree, ABUTH [16]: 100% | growth controlling degree, ORYSA [17]: 90% | growth controlling degree, TRZAX [18]: 50% | growth controlling degree, ZEAMX [19]: 60% | growth controlling degree, GLXMA [20]: 95% | growth controlling degrees (%) ECHOR [21]: 100% | growth controlling degrees (%) SCPJO [22]: 98% | growth controlling degrees (%) SAGPY [23]: 100% | growth controlling degrees (%) ORYSA [24]: 60%

Cn1nc(-c2c(F)cc(Cl)c(OC(F)F)c2NC=O)c(Cl)c1OC(F)F [Compound 1-82]
Pre-emergence Herbicidal Activity ECHCG (growth controlling degree) [1]: 100% | Pre-emergence Herbicidal Activity DIGSP (growth controlling degree) [2]: 100% | Pre-emergence Herbicidal Activity SETVI (growth controlling degree) [3]: 100% | Pre-emergence Herbicidal Activity AMARE (growth controlling degree) [4]: 100% | Pre-emergence Herbicidal Activity SIDSP (growth controlling degree) [5]: 100% | Pre-emergence Herbicidal Activity ABUTH (growth controlling degree) [6]: 100% | Pre-emergence Herbicidal Activity ORYSA (growth controlling degree) [7]: 80% | Pre-emergence Herbicidal Activity TRZAX (growth controlling degree) [8]: 60% | Pre-emergence Herbicidal Activity ZEAMX (growth controlling degree) [9]: 40% | Pre-emergence Herbicidal Activity GLXMA (growth controlling degree) [10]: 10% | growth controlling degree, ECHCO [11]: 100% | growth controlling degree, DIGSP [12]: 100% | growth controlling degree, SETVI [13]: 100% | growth controlling degree, AMARE [14]: 100% | growth controlling degree, SIDSP [15]: 100% | growth controlling degree, ABUTH [16]: 100% | growth controlling degree, ORYSA [17]: 70% | growth controlling degree, TRZAX [18]: 60% | growth controlling degree, ZEAMX [19]: 70% | growth controlling degree, GLXMA [20]: 90% | growth controlling degrees (%) ECHOR [21]: 100% | growth controlling degrees (%) SCPJO [22]: 98% | growth controlling degrees (%) SAGPY [23]: 100% | growth controlling degrees (%) ORYSA [24]: 60%

COc1cccc(C(=O)Nc2c(OC)c(Cl)cc(F)c2-c2nn(C)c(OC(F)F)c2Cl)c1 [Compound 1-28]
Pre-emergence Herbicidal Activity ECHCG (growth controlling degree) [1]: 80% | Pre-emergence Herbicidal Activity DIGSP (growth controlling degree) [2]: 100% | Pre-emergence Herbicidal Activity SETVI (growth controlling degree) [3]: 100% | Pre-emergence Herbicidal Activity AMARE (growth controlling degree) [4]: 100% | Pre-emergence Herbicidal Activity SIDSP (growth controlling degree) [5]: 100% | Pre-emergence Herbicidal Activity ABUTH (growth controlling degree) [6]: 100% | Pre-emergence Herbicidal Activity ORYSA (growth controlling degree) [7]: 60% | Pre-emergence Herbicidal Activity TRZAX (growth controlling degree) [8]: 20% | Pre-emergence Herbicidal Activity ZEAMX (growth controlling degree) [9]: 0% | Pre-emergence Herbicidal Activity GLXMA (growth controlling degree) [10]: 20% | growth controlling degree, ECHCO [11]: 100% | growth controlling degree, DIGSP [12]: 100% | growth controlling degree, SETVI [13]: 100% | growth controlling degree, AMARE [14]: 100% | growth controlling degree, SIDSP [15]: 90% | growth controlling degree, ABUTH [16]: 100% | growth controlling degree, ORYSA [17]: 95% | growth controlling degree, TRZAX [18]: 40% | growth controlling degree, ZEAMX [19]: 90% | growth controlling degree, GLXMA [20]: 98% | growth controlling degrees (%) ECHOR [21]: 100% | growth controlling degrees (%) SCPJO [22]: 80% | growth controlling degrees (%) SAGPY [23]: 100% | growth controlling degrees (%) ORYSA [24]: 50%
